Test results reported in patent US20250313563A1, “GLYCOGEN SYNTHASE KINASE 3 INHIBITORS AND USES THEREOF” (The Broad Institute, Inc., priority 2022, published 2025).
pIC50: −log10 of the molar value. Where two headings read alike, the source gives them in different places. Each block holds one compound with its values, some of them ahead of it.

Tests used:
[1] = biological target: GSK3α (GST-full length GSK3α) (Homo sapiens (Human), UniProt P49840); experiment: GSK3α TR-FRET kinase assay; type: biochemical
Sequence of GSK3α (GST-full length GSK3α) (P49840 whole entry, canonical isoform): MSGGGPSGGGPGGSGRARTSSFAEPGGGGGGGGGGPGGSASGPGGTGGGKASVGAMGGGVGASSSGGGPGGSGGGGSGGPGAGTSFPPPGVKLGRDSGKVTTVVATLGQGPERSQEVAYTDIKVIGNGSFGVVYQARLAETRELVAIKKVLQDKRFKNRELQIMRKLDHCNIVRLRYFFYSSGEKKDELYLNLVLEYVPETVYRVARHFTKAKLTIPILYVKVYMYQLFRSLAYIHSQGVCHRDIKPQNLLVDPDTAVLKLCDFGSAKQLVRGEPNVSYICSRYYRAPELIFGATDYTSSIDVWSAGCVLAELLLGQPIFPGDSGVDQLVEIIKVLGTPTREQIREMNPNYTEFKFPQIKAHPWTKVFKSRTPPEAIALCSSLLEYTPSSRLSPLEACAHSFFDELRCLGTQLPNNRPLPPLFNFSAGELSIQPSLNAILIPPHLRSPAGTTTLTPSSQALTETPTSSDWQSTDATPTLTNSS
Outline: (§1)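 In this time-resolved FRET format, kinase reactions contained 200 nM biotinylated, S645-phosphorylated glycogen synthase 631-650 peptide and either isoform-specific ATP (2 μM GSK3b, 4 μM GSK3α) or 1 mM ATP. They were quenched with EDTA after 100 min at ambient temperature. Inhibition curves gave IC50 values.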

[2] = biological target: GSK3b (GST-full length GSK3b) (Homo sapiens (Human), UniProt P49841); experiment: GSK3b TR-FRET kinase assay; type: biochemical
Sequence of GSK3b (GST-full length GSK3b) (P49841 whole entry): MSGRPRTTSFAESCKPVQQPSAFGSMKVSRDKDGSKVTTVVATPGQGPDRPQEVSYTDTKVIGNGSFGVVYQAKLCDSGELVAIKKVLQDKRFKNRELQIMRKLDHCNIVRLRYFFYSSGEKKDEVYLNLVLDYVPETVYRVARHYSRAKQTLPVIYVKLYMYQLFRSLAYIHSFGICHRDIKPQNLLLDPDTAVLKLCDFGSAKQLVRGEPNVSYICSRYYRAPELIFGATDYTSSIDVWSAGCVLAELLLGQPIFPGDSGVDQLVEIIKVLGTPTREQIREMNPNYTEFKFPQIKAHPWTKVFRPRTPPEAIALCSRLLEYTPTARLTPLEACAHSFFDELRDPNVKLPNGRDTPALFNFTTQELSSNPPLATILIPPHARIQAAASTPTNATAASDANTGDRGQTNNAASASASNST
Outline: as §1

[3] = 1 nM GSK3α, 4 μM ATP, 30 minute preincubation, Table 16, read-out: GSK3-A TR-FRET BIOCHEMICAL (TR-FRET)
[4] = GSK3-A (TR-FRET 1 mM ATP), GMean, IC50, 1 mM ATP, geometric mean
[5] = 1 nM GSK3b, 2 μM ATP, 30 minute preincubation, Table 16, read-out: GSK3-B TR-FRET BIOCHEMICAL (TR-FRET)
[6] = GSK3-B (TR-FRET 1 mM ATP), GMean, IC50, 1 mM ATP, geometric mean
[7] = 1 nM GSK3α, 4 μM ATP, 30 minute preincubation, read-out: GSK3-A TR-FRET BIOCHEMICAL (TR-FRET), IC50
[8] = 1 nM GSK3b, 2 μM ATP, 30 minute preincubation, read-out: GSK3-B TR-FRET BIOCHEMICAL (TR-FRET), IC50
[9] = 1 nM GSK3α, 4 μM ATP, 30 minute preincubation, Table 16, read-out: GSK3-A TR-FRET BIOCHEMICAL (TR-FRET), IC50
[10] = 1 nM GSK3b, 2 μM ATP, 30 minute preincubation, Table 16, read-out: GSK3-B TR-FRET BIOCHEMICAL (TR-FRET), IC50

SMILES: CC1(C)CC(=O)C2=C(C1)Nc1n[nH]cc1[C@@]21CCN(S(=O)(=O)c2ccccc2)C1 [Compound 951788]
pIC50 [1, 3]: ≥ 7.00
pIC50 [1, 4]: 6.00 to 7.00
pIC50 [2, 5]: ≥ 7.00
pIC50 [2, 6]: 5.30 to 6.00

SMILES: COc1cccc(S(=O)(=O)N2CC[C@]3(C2)C2=C(CC(C)(C)CC2=O)Nc2n[nH]cc23)c1 [Compound 951789]
pIC50 [1, 7]: ≥ 7.00
pIC50 [1, 4]: 6.00 to 7.00
pIC50 [2, 8]: ≥ 7.00
pIC50 [2, 6]: 6.00 to 7.00

SMILES: CC[C@]1(c2cccc(-c3cnn(Cc4ccc(OC)cc4)c3)c2)C2=C(CC(C)(C)NC2=O)Nc2n[nH]cc21 [Compound 951838]
pIC50 [1, 9]: 6.00 to 7.00
pIC50 [2, 10]: 5.30 to 6.00

SMILES: CC1(C)CC(=O)C2=C(Nc3n[nH]cc3C23CCN(S(=O)(=O)c2ccccc2C(F)F)CC3)[C@H]1F [Compound 951839]
pIC50 [1, 3]: ≥ 7.00
pIC50 [2, 5]: 6.00 to 7.00

SMILES: CC[C@]1(c2cccc(-c3cc(C(C)(C)C)nn3C)c2)C2=C(CC(C)(C)NC2=O)Nc2n[nH]cc21 [Compound 951843]
pIC50 [1, 9]: 6.00 to 7.00
pIC50 [2, 10]: < 5.30

SMILES: CC1(C)CC(=O)C2=C(Nc3n[nH]cc3C23CCN(S(=O)(=O)c2ccccc2C(F)F)CC3)[C@@H]1F [Compound 951846]
pIC50 [1, 3]: ≥ 7.00
pIC50 [2, 5]: 6.00 to 7.00

SMILES: CC[C@]1(c2cccc(-c3cnn(Cc4cccc(C(F)(F)F)c4)c3)c2)C2=C(CC(C)(C)NC2=O)Nc2n[nH]cc21 [Compound 951848]
pIC50 [1, 9]: ≥ 7.00
pIC50 [2, 10]: 6.00 to 7.00

SMILES: CC1(C)CC(=O)C2=C(C1)Nc1n[nH]cc1[C@@]21CCN(S(=O)(=O)c2cccc(F)c2)C1 [Compound 951862]
pIC50 [1, 3]: ≥ 7.00
pIC50 [2, 5]: ≥ 7.00

SMILES: Cc1cccc(S(=O)(=O)N2CC[C@]3(C2)C2=C(CC(C)(C)CC2=O)Nc2n[nH]cc23)c1 [Compound 951863]
pIC50 [1, 7]: ≥ 7.00
pIC50 [1, 4]: 6.00 to 7.00
pIC50 [2, 8]: ≥ 7.00
pIC50 [2, 6]: 6.00 to 7.00

SMILES: CC[C@@]1(c2cccc(C(F)(F)F)c2)C2=C(CCN(c3cc(C)n(C)n3)C2=O)Nc2n[nH]cc21 [Compound 951939]
pIC50 [1, 9]: ≥ 7.00
pIC50 [2, 10]: 6.00 to 7.00

SMILES: CC[C@]1(c2cccc(C(F)F)c2)C2=C(CC(C)(C)NC2=O)Nc2n[nH]c(C(F)(F)F)c21 [Compound 951946]
pIC50 [1, 9]: 6.00 to 7.00
pIC50 [2, 10]: 5.30 to 6.00

SMILES: CC[C@]1(c2cccc(C(F)(F)F)c2)C2=C(CCN(c3cc(C)n(C)n3)C2=O)Nc2n[nH]cc21 [Compound 951954]
pIC50 [1, 9]: < 5.30
pIC50 [2, 10]: < 5.30

Continued, values first:

pIC50 [1, 3]: ≥ 7.00
pIC50 [2, 5]: ≥ 7.00
SMILES: COc1cccc(S(=O)(=O)N2CC[C@@]3(C2)C2=C(CC(C)(C)CC2=O)Nc2n[nH]cc23)c1 [Compound 951790]

pIC50 [1, 9]: 6.00 to 7.00
pIC50 [2, 10]: 5.30 to 6.00
SMILES: CCC1(c2cccc(-c3cnn(CC4CCOC4)c3)c2)C2=C(CC(C)(C)NC2=O)Nc2n[nH]cc21 (stereo not shown) [Compound 951836]

pIC50 [1, 9]: 6.00 to 7.00
pIC50 [2, 10]: 6.00 to 7.00
SMILES: CC[C@]1(c2cccc(-c3cnn(-c4ccccc4)c3C(F)(F)F)c2)C2=C(CC(C)(C)NC2=O)Nc2n[nH]cc21 [Compound 951837]

pIC50 [1, 9]: 6.00 to 7.00
pIC50 [2, 10]: 5.30 to 6.00
SMILES: CCC1(c2cccc(-c3cc(C(C)C)nn3C)c2)C2=C(CC(C)(C)NC2=O)Nc2n[nH]cc21 (stereo not shown) [Compound 951842]

pIC50 [1, 9]: ≥ 7.00
pIC50 [2, 10]: 6.00 to 7.00
SMILES: CC[C@]1(c2cccc(-c3c(C#N)c(C)nn3C)c2)C2=C(CC(C)(C)NC2=O)Nc2n[nH]cc21 [Compound 951844]

pIC50 [1, 9]: 6.00 to 7.00
pIC50 [2, 10]: 6.00 to 7.00
SMILES: CC[C@@]1(c2cccc(-c3cc(C)nn3-c3ccccc3)c2)C2=C(CC(C)(C)NC2=O)Nc2n[nH]cc21 [Compound 951845]

pIC50 [1, 9]: ≥ 7.00
pIC50 [2, 10]: 6.00 to 7.00
SMILES: CCC1(c2cccc(-c3cnn(Cc4ccc(C(F)(F)F)cc4)c3)c2)C2=C(CC(C)(C)NC2=O)Nc2n[nH]cc21 (stereo not shown) [Compound 951849]

pIC50 [1, 7]: ≥ 7.00
pIC50 [1, 4]: 6.00 to 7.00
pIC50 [2, 8]: ≥ 7.00
pIC50 [2, 6]: 6.00 to 7.00
SMILES: CC1(C)CC(=O)C2=C(C1)Nc1n[nH]cc1[C@]21CCN(S(=O)(=O)c2cccc(F)c2)C1 [Compound 951861]

pIC50 [1, 3]: ≥ 7.00
pIC50 [1, 4]: 6.00 to 7.00
pIC50 [2, 5]: ≥ 7.00
pIC50 [2, 6]: 5.30 to 6.00
SMILES: Cc1cccc(S(=O)(=O)N2CC[C@@]3(C2)C2=C(CC(C)(C)CC2=O)Nc2n[nH]cc23)c1 [Compound 951864]

pIC50 [1, 9]: ≥ 7.00
pIC50 ([1]; read-out: GSK3-A (TR-FRET 1 mM ATP), GMean, IC50, 1 mM ATP, geometric mean): ≥ 7.00
pIC50 [2, 10]: ≥ 7.00
pIC50 ([2]; read-out: GSK3-B (TR-FRET 1 mM ATP), GMean, IC50, 1 mM ATP, geometric mean): 6.00 to 7.00
SMILES: CCC1(c2cccc(C(F)F)c2)C2=C(CC(C)(C)NC2=O)Nc2n[nH]c(C(F)(F)F)c21 (stereo not shown) [Compound 951948]

pIC50 [1, 9]: 6.00 to 7.00
pIC50 [2, 10]: 5.30 to 6.00
SMILES: CC[C@]1(c2cccc(-c3cnn(-c4ccncn4)c3)c2)C2=C(CC(C)(C)NC2=O)Nc2n[nH]cc21 [Compound 952016]
